# Measurements reported in US10227331B2 (priority 2015, dated 2019).
# Assays:
# [1] = test system: P. aeruginosa expressing IMP-1, efflux+ (MB9798); assay type: cell-based, Pseudomonas aeruginosa; conditions: for P. aeruginosa expressing IMP-1, efflux+ (MB9798) MITC95: imipenem at 2 μg/mL, in the presence of a class A, C, D serine β-lactamase inhibitor closely related to relebactam; for Efflux ratio: ratio MITC95 PA_9798/MITC95 PA_9799
# Excerpt: (§1) The strain background is Pseudomonas aeruginosa PAO1.
# [2] = target: VIM-1 (Pseudomonas aeruginosa (strain ATCC 15692 / DSM 22644 / CIP 104116 / JCM 14847 / LMG 12228 / 1C / PRS 101 / PAO1), UniProt A0A0F7KYQ8); test: biochemical; conditions: CCF2-FA substrate, 2 hours at 25° C
# Summary of the method: (§2)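 Semi-log dose-response curves, fitted with a 4-parameter model, gave IC50s. The underlying signal was CCF2-FA fluorescence following 2 hours at 25° C with enzyme, substrate and inhibitor combined.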
# [3] = test system: Escherichia coli expressing NDM-1 (CLB30005, CLB30016); assay type: cell-based; conditions: with imipenem 1 μg/ml, 95% inhibition of bacterial growth; for Escherichia coli MITC95: NDM-1 (CLB30016)
# Summary of the method: (§3)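 Restoration of imipenem susceptibility (1 μg/ml imipenem) was judged by absorbance after 22–24 h at 35° C. Test compound was added to bacteria suspended 1:100 in 1.1× CAMHB from overnight blood-agar cultures.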
# [4] = test system: Klebsiella pneumoniae expressing VIM-1 (IHMA599644); assay type: cell-based; conditions: with imipenem 1 μg/ml, 95% inhibition of bacterial growth; for Klebsiella pneumoniae MITC95: VIM-1 (IHMA599644)
# Summary of the method: as §3
# [5] = test system: Serratia marcescens expressing IMP-1 (CL5741); assay type: cell-based; conditions: with imipenem 1 μg/ml, 95% inhibition of bacterial growth; for Serratia marcescens MITC95: IMP-1 (CL5741)
# Summary of the method: as §3
# [6] = target: NDM-1 (Klebsiella pneumoniae, UniProt C7C422); test: biochemical; assay type: biochemical; conditions: CCF2-FA substrate, 2 hours at 25° C; read-out: NDM-1 IC50
# Summary of the method: as §2
# [7] = target: IMP-1 (Serratia marcescens, UniProt P52699); test: biochemical; assay type: biochemical; conditions: CCF2-FA substrate, 2 hours at 25° C; read-out: IMP-1 IC50
# Summary of the method: as §2
# [8] = test system: P. aeruginosa expressing IMP-1, efflux− (MB9799); test: Efflux: concentration of MBL inhibitor which restores susceptibility to imipenem; assay type: cell-based, Pseudomonas aeruginosa; conditions: imipenem at 2 μg/mL, in the presence of a class A, C, D serine β-lactamase inhibitor closely related to relebactam
# Excerpt: as §1
# NDM-1, sequence (C7C422 whole entry, looked up, species assumed): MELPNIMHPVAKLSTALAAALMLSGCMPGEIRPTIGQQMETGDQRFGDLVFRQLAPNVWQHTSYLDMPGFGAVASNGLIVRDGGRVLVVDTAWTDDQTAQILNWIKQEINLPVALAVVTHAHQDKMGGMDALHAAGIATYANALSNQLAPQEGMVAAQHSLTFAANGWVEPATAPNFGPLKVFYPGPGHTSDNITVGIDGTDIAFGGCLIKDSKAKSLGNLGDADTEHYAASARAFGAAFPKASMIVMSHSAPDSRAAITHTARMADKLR
# IMP-1, sequence (P52699 whole entry, looked up, species assumed): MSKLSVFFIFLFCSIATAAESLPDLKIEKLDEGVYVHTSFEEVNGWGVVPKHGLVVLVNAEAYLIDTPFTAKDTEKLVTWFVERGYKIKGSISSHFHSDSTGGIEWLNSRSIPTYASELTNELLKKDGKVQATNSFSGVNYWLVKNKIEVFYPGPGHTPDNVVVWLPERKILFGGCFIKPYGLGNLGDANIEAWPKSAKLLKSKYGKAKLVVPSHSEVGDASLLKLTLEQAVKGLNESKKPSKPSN
Compound,"P. aeruginosa expressing IMP-1, efflux+ (MB9798) MITC95 [1]",Efflux ratio [1],IC50 [2],Escherichia coli expressing NDM-1 (CLB30016) MITC95 [3],Klebsiella pneumoniae expressing VIM-1 (IHMA599644) MITC95 [4],Serratia marcescens expressing IMP-1 (CL5741) MITC95 [5],IC50 [6],IC50 [7],"P. aeruginosa expressing IMP-1, efflux− (MB9799) MITC95 [8]",Escherichia coli MITC95 [3],Klebsiella pneumoniae MITC95 [4],Serratia marcescens MITC95 [5]
"Nc1nc2c(-c3ccc(S(=O)(=O)C4CNC4)c(S(N)(=O)=O)c3-c3nn[nH]n3)ccc(C(=O)O)c2s1 [Example 38, 2-amino-4-(4-(azetidin-3-ylsulfonyl)-3-sulfamoyl-2-(2H-tetrazol-5-yl)phenyl)benzo[d]thiazole-7-carboxylic Acid]",9.375 µM,1.50,0.341 nM,31.25 µM,25 µM,12.5 µM,0.0286 nM,0.126 nM,6.25 µM,–,–,–
"Nc1nc2c(-c3ccc(S(=O)(=O)CC4(N)CC4)c(S(N)(=O)=O)c3-c3nn[nH]n3)cccc2s1 [Example 95, 3-(2-aminobenzo[d]thiazol-4-yl)-6-((1-aminocyclopropyl)methylsulfonyl)-2-(2H-tetrazol-5-yl)benzenesulfonamide]",3.125 µM,2.00,0.293 nM,1.563 µM,6.25 µM,1.563 µM,0.138 nM,0.221 nM,1.563 µM,–,–,–
"Cc1ccc(-c2ccc(S(C)(=O)=O)c(S(N)(=O)=O)c2-c2nn[nH]n2)c2nc(N)sc12 [Example 193, 3-(2-amino-7-methylbenzo[d]thiazol-4-yl)-6-(methylsulfonyl)-2-(2H-tetrazol-5-yl)benzenesulfonamide]",6.25 µM,4.00,0.106 nM,3.125 µM,6.25 µM,1.563 µM,0.137 nM,0.0941 nM,1.563 µM,–,–,–
"NC[C@@H](N)CS(=O)(=O)c1ccc(-c2cccc3[nH]c(N)nc23)c(-c2nn[nH]n2)c1S(N)(=O)=O [Example 360, (R)-3-(2-amino-1H-benzo[d]imidazol-4-yl)-6-((2,3-diaminopropyl)sulfonyl)-2-(2H-tetrazol-5-yl) benzenesulfonamide]",0.8906 µM,0.70,0.287 nM,–,–,–,0.0654 nM,0.544 nM,1.281 µM,0.25 µM,1.781 µM,1.391 µM
"Nc1cncc(-c2ccc(S(=O)(=O)C3CNC3)c(S(N)(=O)=O)c2-c2nnn[nH]2)c1.O=C(O)C(F)(F)F [Example 112, 3-((4-(5-aminopyridin-3-yl)-2-sulfamoyl-3-(1H-tetrazol-5-yl)phenyl)sulfonyl)azetidin-1-ium 2,2,2-trifluoroacetate]",12.5 µM,4.00,1.79 nM,3.125 µM,6.25 µM,3.125 µM,2.51 nM,8.68 nM,3.125 µM,–,–,–
"Nc1nc2c(-c3ccc(S(=O)(=O)C[C@@H](N)CO)c(S(N)(=O)=O)c3-c3nn[nH]n3)cccc2[nH]1 [Example 274, 3-(2-amino-1H-benzo[d]imidazol-4-yl)-6-((S)-2-amino-3-hydroxypropylsulfonyl)-2-(2H-tetrazol-5-yl)benzenesulfonamide]",0.7813 µM,1.00,0.206 nM,–,–,–,0.113 nM,0.431 nM,0.7813 µM,0.7813 µM,1.563 µM,1.563 µM
"Cn1c(N)nc2c(-c3ccc(S(=O)(=O)CCCN)c(S(N)(=O)=O)c3-c3nn[nH]n3)cccc21 [Example 195, 3-(2-amino-1-methyl-1H-benzo[d]imidazol-4-yl)-6-(3-aminopropylsulfonyl)-2-(2H-tetrazol-5-yl)benzenesulfonamide]",0.7813 µM,1.00,0.155 nM,0.3906 µM,1.563 µM,0.7813 µM,0.26 nM,0.251 nM,0.7813 µM,–,–,–
"NCCS(=O)(=O)c1ccc(-c2cccc3[nH]c(=O)[nH]c23)c(-c2nnn[nH]2)c1S(N)(=O)=O [Example 300, 6-((2-aminoethyl)sulfonyl)-3-(2-oxo-2,3-dihydro-1H-benzo[d]imidazol-4-yl)-2-(1H-tetrazol-5-yl) benzenesulfonamide]",1.563 µM,2.00,0.162 nM,–,–,–,0.254 nM,0.415 nM,0.7813 µM,0.7813 µM,3.125 µM,1.563 µM
"Nc1nc2c(-c3ccc(S(=O)(=O)C4CNC4)c(S(N)(=O)=O)c3-c3nn[nH]n3)cccn2n1 [Example 216, 3-(2-amino-[,2,4]triazolo[1,5-a]pyridin-8-yl)-6-(azetidin-3-ylsulfonyl)-2-(2H-tetrazol-5-yl)benzenesulfonamide]",6.25 µM,4.00,0.151 nM,12.5 µM,6.25 µM,3.125 µM,0.102 nM,1.66 nM,1.563 µM,–,–,–
"NCCS(=O)(=O)c1ccc(-c2cnc(O)nc2)c(-c2nnn[nH]2)c1S(N)(=O)=O.O=C(O)C(F)(F)F [Example 137, 2-((4-(2-hydroxypyrimidin-5-yl)-2-sulfamoyl-3-(1H-tetrazol-5-yl)phenyl)sulfonyl)ethanaminium 2,2,2-trifluoroacetate]",25 µM,15.99,23.5 nM,0.7813 µM,3.125 µM,1.563 µM,16.8 nM,32.6 nM,1.563 µM,–,–,–
"CS(=O)(=O)c1ccc(-c2cccc3cn[nH]c23)c(-c2nn[nH]n2)c1S(N)(=O)=O [Example 191, 3-(1H-indazol-7-yl)-6-(methylsulfonyl)-2-(2H-tetrazol-5-yl)benzenesulfonamide]",25 µM,15.99,0.298 nM,3.125 µM,6.25 µM,3.125 µM,0.436 nM,0.21 nM,1.563 µM,–,–,–
